The values below come from ChEMBL document CHEMBL1147283, “Bullatacin and bullatacinone: two highly potent bioactive acetogenins from Annona bullata” (J Nat Prod, 1989).

Values after ≈ are worked out from the molar mass of the structure shown. Active and inactive are the calls of the source. The rule behind the calls is not given here.

Data set [1] can be described thus: Toxicity in brine shrimp. The conditions noted are these: artemia, in vivo. The class given is organism-based.
A short description of data set [2]: (§1) Cytotoxicity against human 9KB cells. It counts as functional.
The test system of data set [3] is Spodoptera eridania. The experiment in a line: Pesticidal activity against Spodoptera eridania at 100 ppm relative to control. The class given is functional.
The next data set has as its system A549. The experiment in a line: Cytotoxicity against human A549 cells. The class given is functional, cell-based. The conditions noted are these: for EC50: Homo sapiens, A549, read-out: ED50 (the source's name).
Data set [4] relates to Aphis gossypii. Kind of data set: Pesticidal activity against Aphis gossypii at 400 ppm relative to control. It counts as functional.
The test system of data set [5] is Aphis gossypii. The experiment in a line: Pesticidal activity against Aphis gossypii at 100 ppm relative to control. The class given is functional.
Data set [6] relates to Aphis gossypii. Kind of data set: Pesticidal activity against Aphis gossypii at 10 ppm relative to control. The class given is functional.
Data set [7] has as its system Tetranychus urticae. Kind of data set: Pesticidal activity against Tetranychus urticae at 400 ppm relative to control. It counts as functional.
Data set [8] concerns Aedes aegypti. The experiment in a line: Pesticidal activity against Aedes aegypti larvae at 0.5 ppm relative to control. The class given is functional.
Data set [9] has as its system Tetranychus urticae. Kind of data set: Pesticidal activity against Tetranychus urticae at 10 ppm relative to control. It counts as functional.
Data set [10] has as its system Spodoptera eridania. Kind of data set: Pesticidal activity against Spodoptera eridania at 400 ppm relative to control. The class given is functional.
Data set [11] deals with Diabrotica undecimpunctata. Kind of data set: Pesticidal activity against Diabrotica undecimpunctata howardi at 6 ppm relative to control. The class given is functional.
The next data set has as its system HT-29. The experiment in a line: Cytotoxicity against human HT-29 cells. The class given is functional, cell-based.
Data set [12] relates to Tetranychus urticae. The experiment in a line: Pesticidal activity against Tetranychus urticae at 100 ppm relative to control. The class given is functional.
Data set [13] has as its system Diabrotica undecimpunctata. The experiment in a line: Pesticidal activity against Diabrotica undecimpunctata howardi at 24 ppm relative to control. The class given is functional.
Data set [14] concerns Aedes aegypti. The experiment in a line: Pesticidal activity against Aedes aegypti larvae at 1 ppm relative to control. It counts as functional.
Data set [15] has as its system Aedes aegypti. Kind of data set: Pesticidal activity against Aedes aegypti larvae at 10 ppm relative to control. The class given is functional.
Data set [16] in a line: (§2) Cytotoxicity against mouse 9PS cells. The class given is functional. The conditions noted are these: read-out: ED50 (the source's name).
The subject of a further data set is 9KB. Described as §1. It counts as functional.
The species named for the next data set is Mus musculus. The description is as §2. The class given is functional.
A short description of data set [17]: Displacement of radiolabeled ligand form protein kinase C at 10 uM.

On to `C=C1C[C@@]23CC[C@H]4[C@@](C)(CCC[C@]4(C)C(=O)O)[C@@H]2CCC1C3`, for which the LC50 in data set [1] was 0.87 µg/mL (≈ 2.88 µM).

`CCCCCCCCCC[C@H](O)[C@H]1CC[C@H]([C@H]2CC[C@H]([C@H](O)CCCCCCCCCC[C@@H]3CC(CC(C)=O)C(=O)O3)O2)O1` (stereo partly specified) [BULLATACINONE]: the values for the ED50 (in data set [2]; with HT-29) were less than 1 ×10⁻¹² ug/ml and 5 ×10⁻¹² ug/ml, respectively. Besides, the Activity in the data set with Spodoptera eridania [3], in the data set with Aphis gossypii [4], in the data set with Aphis gossypii [5], with Aphis gossypii [6], with Tetranychus urticae [7] and in the data set on Aedes aegypti [8] was 0% in each case. Also, the Activity (in the data set on Tetranychus urticae [9]; in the data set with Spodoptera eridania [10]; in [11]; with Tetranychus urticae [12]; in data set [13]; in the data set with Aedes aegypti [14]) was 0% throughout. In the data set on Aedes aegypti [15], this molecule yielded an Activity of 0%. Moreover, the EC50 turned out to be 0.001 µg/mL (≈ 0.00161 µM) in the data set on A549 and 0.00423 µg/mL (≈ 0.00679 µM) in data set [16]. Moreover, the LC50 in data set [1] turned out to be 0.003 µg/mL (≈ 0.00482 µM).

For `CCCCCCCCCC[C@H](OC(C)=O)[C@H]1CC[C@H]([C@H]2CC[C@H]([C@@H](CCCCCCCCCC[C@@H]3C[C@@H](CC(C)=O)C(=O)O3)OC(C)=O)O2)O1` [BULLATACINONE DIACETATE], the EC50 was 0.005 µg/mL in data set [2] (Homo sapiens, 9KB, read-out: ED50 (the source's name)); 0.028 µg/mL in the data set on A549; 0.0422 µg/mL in data set [16]. The LC50 in [1] is more than 10 µg/mL. For the same molecule, the ED50 in the data set on HT-29 was 1 ×10⁻¹ umol/L.

On to `CCCCCCCCCC[C@H](OC(C)=O)[C@H]1CC[C@H]([C@H]2CC[C@H]([C@@H](CCCCCCCCCC[C@H](CC3=C[C@H](C)OC3=O)OC(C)=O)OC(C)=O)O2)O1` [BULLATACIN TRIACETATE], for which, in data set [2], the ED50 is 6.85 ×10⁻⁷ ug/ml. Besides, the EC50 in the data set with A549 is 0.002 µg/mL; in the data set with HT-29 (Homo sapiens, HT-29, read-out: ED50 (the source's name)), more than 0.1 µg/mL; in data set [16], 0.00389 µg/mL. The same molecule came in with an LC50 in data set [1] of 5.7 µg/mL.

For the molecule `O=C1c2ccccc2-c2c3c(cc4ccnc1c24)OCO3` [LIRIODENINE], the result in the data set on 9KB and in the data set listed under Mus musculus was inactive. The median lethal concentration (LC50) in [1] was found to be 1.1 µg/mL (≈ 4 µM).

Take `CCCCCCCCCC[C@H](O)[C@H]1CC[C@H]([C@H]2CC[C@H]([C@H](O)CCCCCCCCCC[C@@H](O)CC3C[C@H](C)OC3=O)O2)O1` (stereo partly specified) [DIHYDROBULLATACIN]: the ED50 in the data set with A549 is less than 1 ×10⁻⁶ ug/ml; in the data set with HT-29, 3.33 ×10⁻⁵ ug/ml. The LC50 in data set [1] stood at 0.0145 µg/mL (≈ 0.0232 µM).

As to `CCCCCCCCCC[C@@H](O)[C@@H]1CC[C@@H]([C@@H]2CC[C@@H]([C@H](O)CCCCCCCCCC(O)CC3=CC(C)OC3=O)O2)O1` (stereo partly specified) [BULLATACIN], in data set [17], the Activity is 7%.
